Measured values from ChEMBL document CHEMBL5465560, “Selectivity Literature for EUbOPEN Chemogenomic Library” (2024).
Values belong to the molecule of their own block, whether it stands above or below them.

Columns and labels:
[1] = target: Nociceptin receptor (Homo sapiens) (UniProt P41146); test: Selectivity interaction (Eurofins CEREP Diversity Profile (receptors and ion channels)) EUB0000279b OPRL1; details: at 10 µM
[2] = target: T1, Alpha-1A adrenergic receptor (Homo sapiens) (UniProt P35348); test: Selectivity interaction (Eurofins CEREP Diversity Profile (receptors and ion channels)) EUB0000279b ADRA1A; details: at 10 µM
T1 sequence (whole entry): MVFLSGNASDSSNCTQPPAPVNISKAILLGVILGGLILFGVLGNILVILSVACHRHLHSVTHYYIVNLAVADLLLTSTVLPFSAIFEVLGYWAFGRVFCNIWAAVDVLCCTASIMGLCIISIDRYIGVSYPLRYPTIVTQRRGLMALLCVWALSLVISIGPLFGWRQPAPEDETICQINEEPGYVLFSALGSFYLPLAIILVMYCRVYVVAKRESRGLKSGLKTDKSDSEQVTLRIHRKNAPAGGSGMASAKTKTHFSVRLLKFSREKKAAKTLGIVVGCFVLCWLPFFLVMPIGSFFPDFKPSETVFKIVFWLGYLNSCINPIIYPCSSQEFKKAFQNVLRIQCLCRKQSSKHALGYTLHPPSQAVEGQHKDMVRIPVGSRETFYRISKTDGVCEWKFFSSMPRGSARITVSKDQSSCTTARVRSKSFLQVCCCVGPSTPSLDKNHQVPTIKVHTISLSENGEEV

[3] = target: Mitogen-activated protein kinase kinase kinase 9 (Homo sapiens) (UniProt P80192); test: Selectivity interaction (SelectScreen profiling (Invitrogen)) EUB0000607a MAP3K9; details: at 2 µM
[4] = target: Mitogen-activated protein kinase 8 (Homo sapiens, UniProt P45983); test: Selectivity interaction (SelectScreen profiling (Invitrogen)) EUB0000607a MAPK8; details: at 2 µM
[5] = target: T2, Hormonally up-regulated neu tumor-associated kinase (Homo sapiens) (UniProt P57058); test: Selectivity interaction (KinomeScan (DiscoverX)) EUB0000607a HUNK; details: at 10 µM
T2 sequence (whole entry): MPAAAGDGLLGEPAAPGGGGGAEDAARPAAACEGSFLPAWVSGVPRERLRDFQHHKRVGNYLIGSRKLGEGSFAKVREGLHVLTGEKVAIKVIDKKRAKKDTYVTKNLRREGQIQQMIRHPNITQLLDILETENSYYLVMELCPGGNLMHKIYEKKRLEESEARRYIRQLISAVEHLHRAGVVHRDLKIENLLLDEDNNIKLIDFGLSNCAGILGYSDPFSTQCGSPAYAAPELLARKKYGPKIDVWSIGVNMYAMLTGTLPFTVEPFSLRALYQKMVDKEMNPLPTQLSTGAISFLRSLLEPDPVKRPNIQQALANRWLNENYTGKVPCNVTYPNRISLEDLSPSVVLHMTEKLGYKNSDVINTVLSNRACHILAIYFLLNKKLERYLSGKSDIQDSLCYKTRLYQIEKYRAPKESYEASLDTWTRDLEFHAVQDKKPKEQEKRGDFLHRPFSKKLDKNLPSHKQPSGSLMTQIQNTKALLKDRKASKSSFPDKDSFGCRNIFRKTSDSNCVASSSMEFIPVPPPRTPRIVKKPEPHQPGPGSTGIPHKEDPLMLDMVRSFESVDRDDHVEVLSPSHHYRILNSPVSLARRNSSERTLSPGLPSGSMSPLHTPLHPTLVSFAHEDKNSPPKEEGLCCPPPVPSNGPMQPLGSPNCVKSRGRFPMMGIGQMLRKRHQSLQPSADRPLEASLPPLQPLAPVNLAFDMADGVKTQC

[6] = target: G protein-coupled receptor kinase 5 (Homo sapiens, UniProt P34947); test: Selectivity interaction (Kinase panel (Invitrogen)) EUB0000639a GRK5; details: at 200 nM
[7] = target: Ribosomal protein S6 kinase alpha-5 (Homo sapiens) (UniProt O75582); test: Selectivity interaction (Kinase panel (DSF assay)) EUB0001559a RPS6KA5
[8] = target: T3, Ephrin type-A receptor 6 (Homo sapiens) (UniProt Q9UF33); test: Selectivity interaction (KinomeScan (DiscoverX)) EUB0001049a EPHA6; details: at 1 µM
T3 sequence (whole entry): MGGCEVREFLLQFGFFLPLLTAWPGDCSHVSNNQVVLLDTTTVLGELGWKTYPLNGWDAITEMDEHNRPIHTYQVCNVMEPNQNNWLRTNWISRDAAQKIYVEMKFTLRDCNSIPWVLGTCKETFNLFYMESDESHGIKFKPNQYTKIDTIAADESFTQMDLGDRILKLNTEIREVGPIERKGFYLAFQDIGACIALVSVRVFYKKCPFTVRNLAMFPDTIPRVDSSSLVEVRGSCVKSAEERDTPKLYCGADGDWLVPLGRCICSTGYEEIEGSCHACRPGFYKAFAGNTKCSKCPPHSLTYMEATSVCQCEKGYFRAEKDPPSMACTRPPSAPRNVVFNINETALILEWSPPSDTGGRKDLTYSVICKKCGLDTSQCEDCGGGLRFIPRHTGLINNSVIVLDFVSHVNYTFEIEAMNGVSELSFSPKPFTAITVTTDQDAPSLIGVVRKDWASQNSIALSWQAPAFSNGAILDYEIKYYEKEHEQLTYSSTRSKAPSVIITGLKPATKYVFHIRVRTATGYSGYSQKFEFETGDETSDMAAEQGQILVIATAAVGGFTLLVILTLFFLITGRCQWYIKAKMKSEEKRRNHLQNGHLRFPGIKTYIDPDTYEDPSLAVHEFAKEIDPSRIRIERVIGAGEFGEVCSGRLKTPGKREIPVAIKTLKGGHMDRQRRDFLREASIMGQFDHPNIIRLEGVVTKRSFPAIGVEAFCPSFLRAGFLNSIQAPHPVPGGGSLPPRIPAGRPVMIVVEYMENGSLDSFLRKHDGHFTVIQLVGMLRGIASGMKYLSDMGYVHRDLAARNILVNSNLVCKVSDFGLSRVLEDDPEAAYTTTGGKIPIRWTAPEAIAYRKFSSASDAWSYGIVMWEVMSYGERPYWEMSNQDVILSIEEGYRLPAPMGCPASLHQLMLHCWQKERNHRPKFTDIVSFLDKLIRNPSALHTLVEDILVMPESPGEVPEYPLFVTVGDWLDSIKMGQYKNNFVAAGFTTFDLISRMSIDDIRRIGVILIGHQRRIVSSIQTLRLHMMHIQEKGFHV

[9] = target: Interferon-induced, double-stranded RNA-activated protein kinase (Homo sapiens) (UniProt P19525); test: Selectivity interaction (Kinase panel (KiNativ target engagement assay in Jurkat cells)) EUB0001635a EIF2AK2; type: cell-based; details: Selectivity number of off-targets 0.0, Selectivity number of targets 233.0, Source Knowledge https://www.sciencedirect.com/science/article/pii/S2451945619300674?via%3Dihub, at 1 µM
Sequence of Interferon-induced, double-stranded RNA-activated protein kinase (Homo sapiens) (P19525 whole entry): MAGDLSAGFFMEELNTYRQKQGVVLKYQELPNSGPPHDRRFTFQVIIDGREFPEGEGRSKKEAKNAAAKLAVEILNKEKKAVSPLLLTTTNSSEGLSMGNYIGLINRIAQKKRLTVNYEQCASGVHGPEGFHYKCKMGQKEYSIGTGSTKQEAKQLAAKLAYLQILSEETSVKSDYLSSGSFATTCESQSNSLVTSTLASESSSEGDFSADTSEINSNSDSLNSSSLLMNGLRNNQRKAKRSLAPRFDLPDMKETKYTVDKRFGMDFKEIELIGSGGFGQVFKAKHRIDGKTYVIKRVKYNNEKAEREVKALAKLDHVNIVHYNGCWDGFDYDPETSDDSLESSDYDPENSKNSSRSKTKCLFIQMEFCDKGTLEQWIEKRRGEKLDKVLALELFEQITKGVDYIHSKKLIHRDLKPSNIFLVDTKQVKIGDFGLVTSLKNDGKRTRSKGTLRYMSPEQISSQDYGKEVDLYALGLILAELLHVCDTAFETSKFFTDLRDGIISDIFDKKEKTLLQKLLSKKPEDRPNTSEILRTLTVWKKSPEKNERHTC

Sequence of G protein-coupled receptor kinase 5 (P34947 whole entry, looked up): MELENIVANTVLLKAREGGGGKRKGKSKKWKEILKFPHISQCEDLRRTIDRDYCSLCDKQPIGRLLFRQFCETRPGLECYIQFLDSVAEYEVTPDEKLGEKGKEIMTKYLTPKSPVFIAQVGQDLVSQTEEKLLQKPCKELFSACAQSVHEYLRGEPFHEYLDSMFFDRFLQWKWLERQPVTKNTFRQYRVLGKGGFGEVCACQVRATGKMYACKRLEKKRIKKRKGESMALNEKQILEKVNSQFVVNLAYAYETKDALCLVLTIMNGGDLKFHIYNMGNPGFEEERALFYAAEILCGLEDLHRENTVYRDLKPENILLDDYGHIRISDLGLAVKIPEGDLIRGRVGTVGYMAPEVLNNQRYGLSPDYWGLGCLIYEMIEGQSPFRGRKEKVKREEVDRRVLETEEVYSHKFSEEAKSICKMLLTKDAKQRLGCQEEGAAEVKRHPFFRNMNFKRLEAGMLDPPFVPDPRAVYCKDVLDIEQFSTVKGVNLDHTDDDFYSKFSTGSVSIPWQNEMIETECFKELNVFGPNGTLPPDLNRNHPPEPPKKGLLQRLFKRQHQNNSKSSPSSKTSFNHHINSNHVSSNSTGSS
Sequence of Nociceptin receptor (Homo sapiens) (P41146 whole entry): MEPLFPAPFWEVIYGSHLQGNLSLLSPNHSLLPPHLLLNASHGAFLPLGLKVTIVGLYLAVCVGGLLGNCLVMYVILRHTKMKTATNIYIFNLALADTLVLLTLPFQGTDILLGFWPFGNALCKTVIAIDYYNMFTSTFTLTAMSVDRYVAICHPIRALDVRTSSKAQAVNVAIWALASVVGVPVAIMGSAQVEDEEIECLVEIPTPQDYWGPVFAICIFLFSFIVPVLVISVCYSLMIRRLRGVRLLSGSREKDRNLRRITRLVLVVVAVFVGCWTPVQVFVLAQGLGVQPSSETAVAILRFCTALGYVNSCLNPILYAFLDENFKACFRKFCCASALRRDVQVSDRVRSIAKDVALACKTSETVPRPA
Sequence of Ribosomal protein S6 kinase alpha-5 (Homo sapiens) (O75582 whole entry, looked up): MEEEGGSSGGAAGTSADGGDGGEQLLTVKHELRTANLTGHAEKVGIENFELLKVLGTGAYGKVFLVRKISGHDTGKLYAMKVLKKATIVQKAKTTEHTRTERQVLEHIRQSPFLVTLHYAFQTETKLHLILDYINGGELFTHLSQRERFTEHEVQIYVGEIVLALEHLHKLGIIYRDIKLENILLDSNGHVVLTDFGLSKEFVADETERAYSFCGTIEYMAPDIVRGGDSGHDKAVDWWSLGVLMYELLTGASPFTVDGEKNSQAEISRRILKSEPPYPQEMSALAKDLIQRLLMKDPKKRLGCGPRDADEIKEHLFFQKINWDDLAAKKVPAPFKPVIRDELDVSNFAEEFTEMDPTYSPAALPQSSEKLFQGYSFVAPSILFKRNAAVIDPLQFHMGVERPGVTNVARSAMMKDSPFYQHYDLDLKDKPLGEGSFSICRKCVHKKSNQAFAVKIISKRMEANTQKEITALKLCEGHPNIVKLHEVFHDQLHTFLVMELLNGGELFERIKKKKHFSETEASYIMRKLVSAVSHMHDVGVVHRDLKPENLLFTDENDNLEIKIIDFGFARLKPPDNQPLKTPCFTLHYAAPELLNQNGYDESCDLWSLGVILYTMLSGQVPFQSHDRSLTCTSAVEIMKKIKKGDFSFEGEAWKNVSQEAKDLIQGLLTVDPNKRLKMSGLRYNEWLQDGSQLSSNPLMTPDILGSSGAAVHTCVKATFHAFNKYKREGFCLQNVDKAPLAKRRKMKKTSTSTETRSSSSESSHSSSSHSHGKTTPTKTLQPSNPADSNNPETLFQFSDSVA
Sequence of Mitogen-activated protein kinase kinase kinase 9 (Homo sapiens) (P80192 whole entry, looked up): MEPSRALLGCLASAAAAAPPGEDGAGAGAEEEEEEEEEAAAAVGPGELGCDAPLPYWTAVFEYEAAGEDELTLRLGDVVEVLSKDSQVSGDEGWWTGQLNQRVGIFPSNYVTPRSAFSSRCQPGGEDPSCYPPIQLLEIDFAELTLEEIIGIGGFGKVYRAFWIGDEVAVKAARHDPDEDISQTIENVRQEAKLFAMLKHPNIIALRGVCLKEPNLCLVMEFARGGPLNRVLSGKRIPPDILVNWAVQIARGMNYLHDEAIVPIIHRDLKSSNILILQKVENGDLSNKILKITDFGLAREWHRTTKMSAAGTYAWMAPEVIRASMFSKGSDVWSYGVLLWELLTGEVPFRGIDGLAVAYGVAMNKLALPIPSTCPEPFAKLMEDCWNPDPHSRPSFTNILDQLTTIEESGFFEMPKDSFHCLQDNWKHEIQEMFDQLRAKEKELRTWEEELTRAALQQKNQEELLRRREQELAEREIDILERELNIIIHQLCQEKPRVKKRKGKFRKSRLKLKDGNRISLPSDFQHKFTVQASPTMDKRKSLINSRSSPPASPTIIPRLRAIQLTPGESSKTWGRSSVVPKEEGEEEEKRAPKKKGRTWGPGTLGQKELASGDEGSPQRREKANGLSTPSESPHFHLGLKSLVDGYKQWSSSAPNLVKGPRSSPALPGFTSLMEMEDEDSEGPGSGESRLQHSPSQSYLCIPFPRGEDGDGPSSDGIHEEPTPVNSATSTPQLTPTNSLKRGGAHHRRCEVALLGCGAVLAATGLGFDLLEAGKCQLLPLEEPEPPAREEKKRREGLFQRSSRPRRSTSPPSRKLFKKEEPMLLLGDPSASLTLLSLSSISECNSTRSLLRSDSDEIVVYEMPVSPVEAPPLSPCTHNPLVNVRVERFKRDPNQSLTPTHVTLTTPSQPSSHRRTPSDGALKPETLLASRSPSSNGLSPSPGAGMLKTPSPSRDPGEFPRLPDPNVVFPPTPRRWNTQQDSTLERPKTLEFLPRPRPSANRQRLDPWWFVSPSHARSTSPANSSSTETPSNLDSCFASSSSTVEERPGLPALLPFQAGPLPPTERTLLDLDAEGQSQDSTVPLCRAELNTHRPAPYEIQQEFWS
Sequence of Mitogen-activated protein kinase 8 (P45983 whole entry): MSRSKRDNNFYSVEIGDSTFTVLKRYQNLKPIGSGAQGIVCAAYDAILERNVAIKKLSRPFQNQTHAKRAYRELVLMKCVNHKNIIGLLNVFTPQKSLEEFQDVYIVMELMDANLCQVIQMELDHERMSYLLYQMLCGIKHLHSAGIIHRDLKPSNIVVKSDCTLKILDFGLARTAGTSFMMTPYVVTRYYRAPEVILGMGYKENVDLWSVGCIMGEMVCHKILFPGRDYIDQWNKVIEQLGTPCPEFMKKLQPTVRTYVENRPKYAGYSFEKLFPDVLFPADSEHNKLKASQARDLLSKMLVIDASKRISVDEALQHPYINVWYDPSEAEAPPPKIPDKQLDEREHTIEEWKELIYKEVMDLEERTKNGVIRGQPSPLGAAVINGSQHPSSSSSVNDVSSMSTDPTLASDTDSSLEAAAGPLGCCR

- % of control [1]: 88%
- % of control [2]: 94%
SMILES: CC(=O)c1cc(-c2ccccc2OCC2CC2)c2ncccn12

SMILES: CNC(=O)Nc1ccc(-c2nc(N3CC4CCC(C3)O4)c3cnn(C4CCC5(CC4)OCCO5)c3n2)cc1
- % of inhibition [3]: 11%
- % of inhibition [4]: 12%
- % of control [5]: 100%

- % of inhibition [6]: 0.578%
SMILES: CC[C@@H]1[C@H](F)C(=O)N[C@@H]1COc1nccc2cc(C(N)=O)c(OC)cc12 [ZIMLOVISERTIB]

- dTM [7]: 0.3 K
SMILES: CN(C(=O)c1cnn2cccnc12)c1cc2c(cc1N1CCOCC1)C(=O)N(C[C@@H](F)C(C)(C)O)C2

SMILES: COc1cc(Nc2nc(C)cc(-c3cnn4nc(OC)ccc34)n2)cc(C(F)(F)F)c1
- % of control [8]: 95%

SMILES: C=CC(=O)Nc1ccc(C(=O)Nc2[nH]nc3c2CN(C(=O)N[C@H](CN(C)C)c2ccccc2)C3(C)C)cc1
- % of engagement [9]: -5.3%
